Source: PubChem BioAssay AID624327 (Sanford-Burnham Center for Chemical Genomics, 2012)
pIC50: −log10 of the molar value.

Target: Fatty acid synthase (Homo sapiens) (UniProt P49327)
Test: inhibition of human FAS-TE enzyme activity – biochemical, endpoint fluorescence intensity, uHTS hits, dose response (AID 624327)
Details: recombinant FAS-TE, OMFH fluorogenic substrate

Chain of Fatty acid synthase (Homo sapiens) (P49327 whole entry, looked up): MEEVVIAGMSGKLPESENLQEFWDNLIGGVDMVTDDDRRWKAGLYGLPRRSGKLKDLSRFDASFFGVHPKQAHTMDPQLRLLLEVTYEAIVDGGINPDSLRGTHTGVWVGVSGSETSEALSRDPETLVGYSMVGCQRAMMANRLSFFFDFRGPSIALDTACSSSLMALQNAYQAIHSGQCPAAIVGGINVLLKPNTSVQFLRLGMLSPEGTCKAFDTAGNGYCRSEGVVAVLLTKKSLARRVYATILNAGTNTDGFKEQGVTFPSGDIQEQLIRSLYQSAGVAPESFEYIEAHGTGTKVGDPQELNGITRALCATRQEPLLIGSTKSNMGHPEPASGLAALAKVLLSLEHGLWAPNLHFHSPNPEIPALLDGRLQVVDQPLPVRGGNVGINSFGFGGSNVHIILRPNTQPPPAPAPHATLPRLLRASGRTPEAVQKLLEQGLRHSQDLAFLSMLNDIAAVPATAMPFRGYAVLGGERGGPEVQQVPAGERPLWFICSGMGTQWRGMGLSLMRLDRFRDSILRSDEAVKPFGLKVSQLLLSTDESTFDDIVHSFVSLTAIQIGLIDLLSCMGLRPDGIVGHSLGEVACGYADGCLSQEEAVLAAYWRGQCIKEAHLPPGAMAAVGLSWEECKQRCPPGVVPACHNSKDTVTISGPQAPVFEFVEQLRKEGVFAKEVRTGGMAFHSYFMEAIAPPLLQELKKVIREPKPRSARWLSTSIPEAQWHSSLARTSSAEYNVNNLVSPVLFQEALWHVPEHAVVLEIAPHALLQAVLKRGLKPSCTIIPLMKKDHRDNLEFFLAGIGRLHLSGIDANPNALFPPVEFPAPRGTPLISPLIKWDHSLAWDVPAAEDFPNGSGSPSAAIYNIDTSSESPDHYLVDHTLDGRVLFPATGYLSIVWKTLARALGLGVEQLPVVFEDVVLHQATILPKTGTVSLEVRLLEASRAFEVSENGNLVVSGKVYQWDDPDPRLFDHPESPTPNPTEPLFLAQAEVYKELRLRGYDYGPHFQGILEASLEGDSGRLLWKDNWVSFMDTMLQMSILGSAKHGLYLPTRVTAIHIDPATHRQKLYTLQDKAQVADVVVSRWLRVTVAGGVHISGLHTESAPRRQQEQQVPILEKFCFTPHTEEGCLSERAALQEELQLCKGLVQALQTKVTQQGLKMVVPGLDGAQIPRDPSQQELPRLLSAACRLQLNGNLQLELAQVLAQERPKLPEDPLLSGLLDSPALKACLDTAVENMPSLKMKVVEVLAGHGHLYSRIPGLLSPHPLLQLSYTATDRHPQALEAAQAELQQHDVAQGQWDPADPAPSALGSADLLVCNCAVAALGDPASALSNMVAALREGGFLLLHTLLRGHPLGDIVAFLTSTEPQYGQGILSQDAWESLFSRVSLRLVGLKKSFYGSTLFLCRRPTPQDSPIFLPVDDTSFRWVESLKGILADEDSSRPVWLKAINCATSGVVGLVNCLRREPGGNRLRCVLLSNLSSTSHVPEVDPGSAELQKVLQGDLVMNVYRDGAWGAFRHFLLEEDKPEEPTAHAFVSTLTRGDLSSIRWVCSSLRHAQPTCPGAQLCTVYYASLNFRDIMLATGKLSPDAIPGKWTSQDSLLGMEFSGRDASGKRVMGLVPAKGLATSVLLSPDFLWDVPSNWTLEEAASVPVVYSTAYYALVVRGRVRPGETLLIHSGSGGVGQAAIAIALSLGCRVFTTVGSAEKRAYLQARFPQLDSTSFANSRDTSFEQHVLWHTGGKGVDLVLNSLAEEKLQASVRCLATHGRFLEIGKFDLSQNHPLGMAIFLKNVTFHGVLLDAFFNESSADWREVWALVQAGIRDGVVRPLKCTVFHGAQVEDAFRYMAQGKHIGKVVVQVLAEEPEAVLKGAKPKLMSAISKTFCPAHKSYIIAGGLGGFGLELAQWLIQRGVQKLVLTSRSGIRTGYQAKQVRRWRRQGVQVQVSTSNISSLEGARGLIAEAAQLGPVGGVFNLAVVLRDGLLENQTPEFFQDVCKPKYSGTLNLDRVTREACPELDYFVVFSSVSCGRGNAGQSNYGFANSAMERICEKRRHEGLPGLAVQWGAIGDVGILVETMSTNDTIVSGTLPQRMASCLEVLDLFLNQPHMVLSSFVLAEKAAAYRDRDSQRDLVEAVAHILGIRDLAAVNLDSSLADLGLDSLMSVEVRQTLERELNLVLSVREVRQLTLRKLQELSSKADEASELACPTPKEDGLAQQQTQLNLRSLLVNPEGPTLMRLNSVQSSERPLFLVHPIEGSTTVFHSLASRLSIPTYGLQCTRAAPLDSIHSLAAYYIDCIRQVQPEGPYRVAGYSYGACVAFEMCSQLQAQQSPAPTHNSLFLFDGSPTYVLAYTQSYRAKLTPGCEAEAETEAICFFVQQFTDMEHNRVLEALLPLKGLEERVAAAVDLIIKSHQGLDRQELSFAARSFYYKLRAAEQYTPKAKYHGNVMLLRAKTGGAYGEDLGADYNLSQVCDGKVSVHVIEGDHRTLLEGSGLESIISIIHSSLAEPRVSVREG

| Compound | pIC50 |
| --- | --- |
| CCCc1cc(C(=O)Nc2cccc([N+](=O)[O-])c2)cs1 | 5.06 |
| O=S(=O)(c1ccc(-c2csc(-c3cccnc3)n2)cc1)N1CCCC1 | 5.82 |
| CCCC(C)c1nnc(NC(=O)c2cc(C(=O)OC)cc([N+](=O)[O-])c2)s1 (stereo unspecified) | 5.15 |
| CCN(CC(=O)NCc1cccs1)S(=O)(=O)c1ccc([N+](=O)[O-])cc1 | 4.75 |
| COc1ccc2cc3cc(C(=O)N4CC(C)CC(C)C4)oc3nc2c1 (stereo unspecified) | 5.41 |
| COc1ccc(CNC(=O)/C=C/c2cc([N+](=O)[O-])ccc2OC(F)F)cc1OC | 5.49 |
| CCn1c(=O)c([N+](=O)[O-])c(N2CCN(Cc3ccc4c(c3)OCO4)CC2)c2ccccc21 | 5.74 |
| O=S(=O)(c1ccc(-c2csc(-c3cccnc3)n2)cc1)N1CCCCC1 | 5.57 |
| N/C(=N\OC(=O)CCCc1ccccc1)c1cccc([N+](=O)[O-])c1 | 4.92 |
| O=C(COc1ccccc1)Nc1nc(-c2ccc(S(=O)(=O)N3CCOCC3)cc2)cs1 | 6.38 |
| CC(C)(C)OC(=O)NCCCC[C@H](NC(=O)c1nc[nH]c1C(=O)NCC(=O)OCc1ccccc1)C(=O)OC(C)(C)C | > 6.80 |
| O=C(Nc1nc(-c2ccc(S(=O)(=O)N3CCCC3)cc2)cs1)c1ccco1 | 5.33 |
| CC(C)(C)OC(=O)NCCCC[C@H](NC(=O)c1nc[nH]c1C(=O)NC1CCN(C(=O)OC(C)(C)C)CC1)C(=O)OC(C)(C)C | 5.81 |
| O=S(=O)(c1ccc(-c2csc(Nc3ccc(F)cc3)n2)cc1)N1CCCC1 | 4.83 |
| O=C(OCc1ccc([N+](=O)[O-])cc1)c1cc([N+](=O)[O-])ccc1N1CCOCC1 | 5.57 |
| CC(C)(C)c1nc2scc(-c3cccs3)c2c(=O)o1 | 5.47 |
| O=C(COc1ccc2c(-c3ccccc3)cc(=O)oc2c1)N[C@@H](Cc1c[nH]c2ccc(O)cc12)C(=O)O | 5.16 |
| O=C(Nc1nnc(SCc2ccccc2Cl)s1)c1cccc([N+](=O)[O-])c1 | 4.94 |
| O=S(=O)(c1ccc(-c2csc(-c3cccnc3)n2)cc1)N1CCOCC1 | 5.67 |
| Cc1cc(C(=O)N/N=C/c2cc([N+](=O)[O-])cc(C)c2O)n[nH]1 | 4.93 |
| O=C(C[C@H]1C[C@H](C(=O)N2CCOCC2)[C@@]2(CCC3CCCC3)c3[nH]c4cc(-c5ccco5)ccc4c3CCN2C1=O)NCCc1ccccn1 | 5.16 |

| Compound | pIC50 |
| --- | --- |
| O=C(CN1C(=O)c2cccc([N+](=O)[O-])c2C1=O)N1CCc2ccccc2C1 | 5.03 |
| CCc1nc2c(OCc3ccc(C(F)(F)F)cc3)cccn2c1N(C=O)Cc1ccc(OC)cc1 | 5.04 |
| COCc1cc(C)nc(SCC[N+](C)(C)CC(=O)Nc2ccccc2)c1C#N | 4.91 |
| CCCCC(=O)Nc1nc(-c2ccc(S(=O)(=O)N3CCOCC3)cc2)cs1 | 6.70 |
| COc1ccc(NC(=O)CC2C(=O)N(C)C(=S)N2Cc2cccs2)cc1 (stereo unspecified) | 4.80 |
| CNS(=O)(=O)c1ccc2c(c1)C(=O)c1cc(S(=O)(=O)NC)ccc1CC2 | 6.06 |
| COC(=O)c1cc(C(=O)NC(C)C2CC3CCC2C3)cc([N+](=O)[O-])c1 (stereo unspecified) | 4.94 |
| CCOC(=O)[C@]12Cc3ccccc3[C@H]1N(C1CCCCC1)C(=O)c1cc(OC)ccc12 | 5.08 |
| CC1(C(=O)NS(=O)(=O)c2ccc(C#N)cc2)CCN1C(=O)c1ccc(C2CCCCC2)cc1 (stereo unspecified) | 5.28 |
| COc1ccccc1C(=O)Nc1nc(-c2ccc(S(=O)(=O)N3CCOCC3)cc2)cs1 | 4.93 |
| CCC(C)(C)C1CCC(=NNS(=O)(=O)c2ccc(C)c([N+](=O)[O-])c2)CC1 (stereo unspecified) | 4.75 |
| CN(C(=O)Nc1ccc(Cl)cc1Cl)[C@H]1c2cc(Br)ccc2OC[C@H]1CO | 4.96 |
| Oc1ccc(Cl)cc1Sc1cc(Cl)ccc1O | 5.45 |
| O=C(c1ccc(Cl)c([N+](=O)[O-])c1)N1CCN(c2ccccc2)CC1 | 4.92 |
| COc1ccc(/C=C(\NC(=O)c2ccc([N+](=O)[O-])cc2)C(=O)NCCN2CCOCC2)cc1 | 5.28 |
| O=C(Nc1nc(-c2ccc(S(=O)(=O)N3CCCC3)cc2)cs1)C1COc2ccccc2O1 (stereo unspecified) | 5.88 |
| Cc1ccc(NC(=O)NNC(=O)Cn2nc(-c3ccccc3)c(-c3ccccc3)c(C#N)c2=O)cc1 | 5.33 |
| Cc1cccc(N2CCN(C(=O)CNC(=O)c3cccc([N+](=O)[O-])c3)CC2)c1C | 5.82 |
| CN(C)S(=O)(=O)c1ccc(-c2csc(-c3cccnc3)n2)cc1 | 5.28 |
| O=C(CC(c1ccccc1)c1ccccc1)NCC(O)c1ccc([N+](=O)[O-])cc1 (stereo unspecified) | 4.87 |
